Key:
Type in all cases: binding
[1] = system: triplex DNA on chip surface; assay: Chip-based scanometric detection of triplex DNA binders (silver enhancement); conditions: varying salt concentrations (0.1 to 0.3 M NaCl), binder 5 μM, DNA-3 150 nM
Method: For scanometric detection of duplex or triplex DNA binding molecules, Au nanoparticles (1 nM) and DNA binding molecules (5 μM) in 10 mM PBS buffer of varying NaCl concentrations were added to the microarray slide under hybridization wells (Nanosphere, Inc.). For detection of triplex binders, 150 nM DNA-3 was added. DNA hybridization proceeded for 30 min (for duplex DNA binders) or 1 h (for triplex DNA binders) in a humidity chamber. After hybridization, the slides were washed three times with 0.5 M NaNO3 containing 0.02% Tween 20. The arrays were dried using a benchtop spinner. Silver enhancement solution (Nanosphere, Inc.) was added for Au-NP signal amplification (1 mL total volume/array, 1.5-min development time for duplex DNA binding molecules and 3 min for triplex binding molecules). The reaction was terminated by washing the slides with NANOpure® water and spin-drying. Light-scattering images from the silver-enhanced chips were recorded using the high-resolution Verigene ID system (Nanosphere, Inc.).
Capture strands of synthetic oligonucleotides are patterned on a glass chip using a microarrayer. The DNA chip is then exposed to a solution containing three components: 1) complementary DNA (no nanoparticles), 2) DNA functionalized Au nanoparticles (DNA is non-complementary to the arrayed DNA) and 3) DNA binders, Scheme 4. The complementary solution-phase DNA, called DNA-3 in Scheme 2, hybridizes to the DNA on the chip surface and forms a duplex. The Au nanoparticle-bound DNA has the correct sequence to form a triplex with the surface bound duplex through sequence-specific Hoogsteen, or reverse Hoogsteen, base pairing. The triplex structure is relatively unstable at room temperature and will only form in the presence of triplex DNA binding molecules. The presence of the triplex DNA binding molecules increase the stability of the triplex, immobilizing the Au nanoparticles on the chip surface. The chip was then exposed to silver enhancement solution for further signal enhancement and then imaged using a Verigene ID scanner.
The assay was performed in the presence of two triplex binders, coralyn (CORA) and benzo[e]pyridoindole (BePI), seven duplex DNA binders, 4′,6-diamidino-2-phenylindole (DAPI), ellipticine (EIPT), amsacrine (AMSA), daunorubicin (DNR), anthraquinone-2-carboxylic acid (AQ2A), ethidium bromide (EB), and 9-aminoacridine (9-AA))., and one control (no DNA-3). Similar to the DNA duplex, the formation of the DNA triplex is a reversible process which is affected by both temperature and salt concentration. However, compared to the duplex, the stability of the triplex is much more sensitive to salt concentration. Therefore, to determine the relative binding strength of the triplex DNA binders, the assay was performed at varying salt concentrations, FIG. 7. At 0.3 M NaCl, both the strong (BePI) and weaker (CORA) triplex binders show signal.

[2] = system: triplex DNA (NP-1/DNA-3/NP-2); assay: Colorimetric triplex binder assay: aggregation of NP-1, NP-2 gold nanoparticles and free DNA-3; conditions: NP-1 and NP-2 1.5 nM each, DNA-3 150 nM, binder 5 μM, 10 mM PBS pH 7.0, NaCl 0.5 M, room temperature
Excerpt: This method utilizes the aggregation-induced, red-to-blue color change associated with 13 nm gold (Au) nanoparticles. The assay consists of two sets of gold nanoparticles NP-1 and NP-2, and a free strand of DNA, DNA-3. […] DNA-3 is complementary to NP-1 with a two base dangling end to prevent noncross-linked NP-1 aggregation. When NP-1 and DNA-3 are combined, they form nonaggregate linking duplexes on the nanoparticle surface. […] However, introduction of a strong triplex binding agent, benzo[e]pyridoindole (BePl), stabilizes triplex formation through Hoogsteen-type Py-PaPy triplet base hydrogen bonds and induces nanoparticle aggregation resulting in a concomitant red-to-blue color change due to a red-shifting and dampening of the nanoparticle plasmon resonance (Scheme 1).
This assay is prepared by combining NP-1 and NP-2 (1.5 nM each) in a 1:1 molar ratio in 10 mM PBS buffer (pH=7.0, NaCl 0.5 M) with DNA-3 (150 nM) and BePl (5 μM). […] This stabilization results in a dramatic decrease in absorbance at 520 nm accompanied by a red-to-blue color change. Note that in the absence of DNA-3, NP-1 and NP-2 cannot form aggregates even in the presence of a strong triplex binder (FIG. 1B).
To further investigate the importance of the triplex structure and rule out aggregation due to duplex formation between the nanoparticles, the assay as set out in Example I was performed in the presence of seven additional duplex binders 4′,6-diamidino-2-phenylindole (DAPI), ellipticine (EIPT), amsacrine (AMSA), daunorubicin (DNR), anthraquinone-2-carboxylic acid (AQ2A), ethidium bromide (EB), and 9-aminoaclidine (9-AA)(5 μM).
In general, assay methods that can detect drug candidates by the naked eye, without resorting to any instrumentation, are convenient, and for this reason, an assay that could screen for triplex binders would be of great interest. At present, there are no assays that provide this capability. […] The mixtures of NP-1, NP-2 and DNA-3 containing the control and duplex intercalators remain red in color.

[3] = system: triplex DNA (DNA-1, DNA-2, DNA-3); assay: UV melting (260 nm) of unmodified triplex DNA-1, DNA-2, DNA-3 (no nanoparticles); conditions: duplex melting transition; solution-phase unmodified DNA, 1 μM each strand, 6 μM binder, 0.5 M NaCl 10 mM PBS
Method: To compare the results from the previous examples with more traditional screening techniques, all eight intercalators were screened, plus a control, by monitoring UV absorbance melting curves (260 nm) of unmodified DNA-1, DNA-2, and DNA-3 (1 μM each), with each intercalator (10 μM), (DNA-1; 3′ TTCTTCTTTTTT CT-5′. DNA-2: 5′-TTCTTCTTTTTTCT-3′, DNA-3: 5′-AAGAAGAAAAAA-3′). (FIG. 2B). The melting experiment performed in the presence of BePl has two melting transitions. The first Tm at 34.8° C. is associated with the denaturation of the triplex structure and the second Tm at 61.4° C. is representative of the corresponding duplex.
To determine the Tm of the duplex DNA in the presence of DNA binders, 2 μM duplex DNA and 5 μM DNA binder were combined in 0.3 M NaCl 10 mM PBS. To determine the Tm of the triplex DNA in the presence of DNA binders, 1 μM of each strand and 6 μM of each DNA binder were combined in 0.5 M NaCl 10 mM PBS. UV-vis melting curves were measured on a CARRY 500 spectrophotometer equipped with a circulating bath. The melting process was monitored by measuring the change in extinction at 260 nm. The solutions were stirred continuously with a magnetic stir bar as the solution temperature was increased at a rate of 0.5° C./min. The first derivative generated from the melting curves was used to determine the Tm.
A melting transition associated with the triple helix was found only for experiments performed in the presence of BePI (34.8° C.) and CORA (17.1° C.) where BePI is determined to be the stronger binder. This is in agreement with the results determined by the chip-based scanometric method described above.

Row | Compound | scanometric signal [1] | nanoparticle aggregation (decrease in absorbance at 520 nm, red-to-blue color change) [2] | Tm 2-1 [3] [°C]
1 | Nc1c2ccccc2nc2ccccc12 [9-AA, 9-aminoacridine] | No signal | no nanoparticle aggregation | 59.1
2 | O=C(O)c1ccc2c(c1)C(=O)c1ccccc1C2=O [AQ2A, anthraquinone-2-carboxylic acid] | No signal | no nanoparticle aggregation | 59.1
3 | N=C(N)c1ccc(-c2cc3ccc(C(=N)N)cc3[nH]2)cc1 [DAPI, 4′,6-diamidino-2-phenylindole] | No signal | no nanoparticle aggregation | 66.3
4 | COc1cccc2c1C(=O)c1c(O)c3c(c(O)c1C2=O)C[C@@](O)(C(C)=O)C[C@@H]3O[C@H]1C[C@H](N)[C@H](O)[C@H](C)O1 [DNR, daunorubicin] | No signal | no nanoparticle aggregation | 61.7
5 | Cc1c2ccncc2c(C)c2c1[nH]c1ccccc12 [EIPT, ellipticine] | No signal | no nanoparticle aggregation | 59.3
